Measurements as given in patent publication US6916484B1, “Aqueous pharmaceutical composition containing moxifloxacin or salts thereof” (Bayer Aktiengesellschaft, priority 1999, dated 2005).
Structures can show the parent of a compound that is named as a salt.

Assay: Saturation solubility of moxifloxacin hydrochloride in water
Type: physicochemical
Conditions: aqueous solution, room temperature
Method: Accordingly, freshly prepared solutions of moxifloxacin with sugars and/or sugar alcohols have, even if they have relatively high iron contents, a sufficient stability against the formation of particles for the period of use of, preferably, up to 12 hours after preparation. Thus, the problem to be solved by the invention can also be overcome by iron-containing solutions for infusion which are used immediately after preparation. Here, it is expedient to use a process in which a pre-formed concentrated aqueous solution of moxifloxacin or a salt thereof and a pre-formed solution of the sugar and/or the sugar alcohols are mixed with one another. […] The concentrated aqueous solution of moxifloxacin id hydrochloride preferably contains from 0.4% (w/v) to 2.4% (w/v) of moxifloxacin (calculated as betaine). […] The active compound concentrate preferably comprises from 1.0 to 2.0% (w/v) of moxifloxacin (calculated as betaine), particularly preferably 2.0% (w/v) of moxifloxacin (calculated as betaine). […]

- saturation solubility: about 2.4 % (w/v)
SMILES: COc1c(N2C[C@@H]3CCCN[C@@H]3C2)c(F)cc2c(=O)c(C(=O)O)cn(C3CC3)c12 [moxifloxacin hydrochloride, 1-cyclopropyl-7-([S,S]-2,8-diazabicyclo[4.3.0]non-8-yl)-6-fluoro-1,4-dihydro-8-methoxy-4-oxo-3-quinolonecarboxylic acid]
